Assays:
SH-SY5Y cells = test: Cell death assay in SH-SY5Y cells with or without Pael receptor overexpression; type: cell-based
Source text: Descriptions concerning expression plasmids for Parkin, Parkin variants, UBCH6, UBCH7 and Ubiquitin are as described in Imai, Y. et al. (2000) J Biol Chem 275, 35661-35664. The full-length complementary strand DNAs (cDNAs) of human and mouse Pael receptors, human ETBR-LP-2, human UBC6, UBC7 and E2-25K were obtained by reverse transcription (RT)-PCR. The full-length cDNA of ETA-R and that of ETB-R were obtained from the RIKEN Gene Bank. Recombinant GST-Parkin, GST-A Ex 4, 6×His tagged UBC6 and UBC7 were produced in the Escherichia coli BL21 strain (DE3) pLysS (Novagen). Site-directed mutagenesis to the active center cysteine of UBC6 and UBC7 was performed by the PCR method. UBC6 of a putative membrane insertion site-deficient type (UBC6ΔC; 1 to 288 amino residues) is expressed better than wild type UBC6 in Escherichia coli and has high enzyme activity, so that UBC6ΔC was subjected to in vitro ubiquitination assay. Anti-Myc (9E10), anti-HA (Y-11), anti-Ubiquitin (FL-76), anti-BiP (N-20) and anti-actin (C-2) antibodies were purchased from Santa Cruz Biotech. Anti-FLAG (M2), anti-HA (3F10), anti-Ubiquitin (1B3), anti-GluR4 (AB1508) and anti-NSE (BBS/NC/VI-H14) were purchased from Sigma, Roche Diagnostics, MBL (Nagoya, Japan), Chemicon and Dako, respectively. Anti-UCH-L1 antibodies were provided by Dr. Keiji WADA (National Center of Neurology and Psychiatry, Japan). 293T cells derived from a human fetal kidney and SH-SY5Y cells derived from neuroblastoma were subjected to gene transfer, immunoprecipitation, Western blot, immunocytochemistry and cell death assay according to the method as described in Imai et al., 2000.
To confirm this prediction, the effect of a proteasome inhibitor and that of a UPR inducer on cell death resulting from the overexpression of Pael receptors were examined (FIG. 11). Vectors (−) having no gene inserted therein or expression plasmids for Pael receptors (+) were gene-transferred with expression plasmids for enhanced green fluorescent proteins (EGFP) to SH-SY5Y cells. The cells were then cultured in the presence (Lc, 20 μM) or the absence (non) of lactacysin, and the presence of tunicamycin (Tm, 5 μg/ml) or 2-ME (2 mM) for 16 hours. Cell death was counted by the method described in Imai, Y. et al. (2000) J Biol Chem 275, 35661-35664. In FIG. 11, the line of error indicates the standard deviation (S.D.) calculated from three experiments.

Pael receptor [1] = test: Immunocytochemistry, intracellular distribution of over-expressed Pael receptors in SH-SY5Y cells; type: cell-based, human; conditions: SH-SY5Y cells transfected with Pael receptor plasmids, treated for 6 hours
Procedure: For immunocytochemistry, a human Pael receptor expression vector (1 μg per sample) was gene-transferred, or was gene-transferred in combination with 0.3 μg of red fluorescent protein expression vector (pDsRed1-N1, Clontech) having endoplasmic reticulum localization sequence of calreticulin or Golgi body localization sequence of human β1, 4-galactosyltransferase into SH-SY5Y cells inoculated on a 8-well chamber slide. After 20 hours of culturing, the cells were exposed to 20 μM lactacystin for 16 hours. After washed in phosphate buffered saline, the cells were fixed with 0.2% glutaraldehyde and 2% formaldehyde. Subsequently, the cells were stained with anti-human Pael receptor antibodies or anti-BiP antibodies. For immunohistochemistry, the carboxyl terminal site (541 to 600 amino residues) of mouse Pael receptor was expressed as a GST fusion protein in Escherichia coli. The anti-Pael receptor polyclonal antibody was prepared against a recombinant protein from which the GST portion had been removed. 14 μm-thick frozen sections of the mouse C57BL/6 brain tissue were allowed to react with anti-Pael receptor antibodies (1:200 dilution), anti-TH antibodies (Chemicon, 1:100), anti-NeuN antibodies (Chemicon, 1:200) or anti-CNPase antibodies (Sigma, 1:100). The primary antibody was stained with Alexa 488 or Alexa 546 (Molecular Probes)-labeled secondary antibody. The stained cells or sections were mounted using SlowFade (Molecular probes), and then observed under a confocal laser fluorescence microscope (Fluoview, Olympus).
Furthermore, to confirm the involvement of cell death induced by misfolded proteins in cell death resulting from overexpression of Pael receptors, intracellular distribution of Pael receptors in the presence or the absence of lactacystin was examined. […] Expression plasmids for Pael receptors were gene-transferred to SH-SY5Y cells, and then the cells were cultured in the presence (middle and lower panels) or the absence (upper panel) of lactacystin for 6 hours. […]

Pael receptor [2] = test: Western blotting of 1% Triton X-100-soluble and -insoluble fractions of Pael receptor-transfected SH-SY5Y cells; type: cell-based, human; conditions: 16 hours, lactacystin 10 μM, tunicamycin 1 μg/ml, 2-ME 1 mM; for Pael receptors in the insoluble fraction: 1% Triton X-100-insoluble fraction; for expression of BiP (GRP78) and of endogenous Parkin in the soluble fraction: cells over-expressing Pael receptors
Procedure: Cells were suspended in a cytolysis buffer (consisting of 20 mM HEPES, pH 7.4, 120 mM NaCl, 5 mM EDTA, 10% glycerol, 1% Triton X-100 and Complete Protease Inhibitors [Roche Diagnostics]) and then lysed at 4° C. for 30 minutes. The forebrain cortex of the human cerebrum was suspended in a cytolysis buffer, and then crushed using a downs homogenizer. The sample was fractionated into surfactant-soluble and insoluble fractions, and then immuno-precipitated according to a modified method of Ward et al. (1995) Cell 83, 121-127. Specifically, the suspension was fractionated by centrifugation at 15,000×g for 30 minutes. The supernatant derived from 1% Triton X-100 soluble fraction was directly subjected to immunoprecipitation. The insoluble pellet fraction was washed 4 times in an ice-cooled cytolysis buffer. Subsequently, the fraction was subjected to lysis at 60° C. for 1 hour in a cytolysis buffer supplemented with sodium lauryl sulfate (SDS) with a final concentration of 1%. A cytolysis buffer containing 10 mM MgCl2 and 25 μg/ml DNase I and having a volume 10 times greater than that of the solution was added. The solution was allowed to react at 37° C. for 10 minutes. After centrifugation at 15,000×g for 30 minutes, the supernatant derived from 1% Triton X-100 insoluble fraction was subjected to immunoprecipitation using various antibodies and protein G-coupled or protein A/G (50/50%)-coupled Sepharose beads (Amersham-Pharmacia). The immunoprecipitate was washed 4 times in a cytolysis buffer containing no complete protease inhibitors. 1% Triton X-100-soluble and -insoluble fractions of total cell extract, or immunoprecipitates derived from the 1% Triton X-100-soluble fraction and -insoluble fraction were subjected to Western blot analysis using ECL detection reagent (Amersham-Pharmacia). Proteins were quantified using Coomassie protein assay reagent (Pierce).
Vectors (−) having no gene inserted therein or expression plasmids (+) for Pael receptors were gene-transferred to SH-SY5Y cells, and then the cells were cultured for 20 hours. Next, in the presence or the absence of lactacystin (10 μM) and in the presence of tunicamycin (1 μg/ml) or 2-mercaptoethanol (2-ME; 1 mM), the cells were cultured for 16 hours. The cells were lysed in a buffer containing 1% Triton X-100, and then fractionated by the method described in Ward et al., 1995 Cell 83, 121-127. Insoluble Pael receptors were immunoprecipitated as described above from the insoluble fraction of the same sample, and then analyzed using anti-Ub polyclonal antibodies (FIG. 10). 1% Triton-X100-insoluble or -soluble fraction was obtained under various conditions, including cases wherein Pael receptor cDNA had not been transfected (−) or transfected (+) to SH-SY5Y cells, and then subjected to Western blotting. Even in an untreated state, Pael receptors were already present in the insoluble fraction at a level equivalent to that of the soluble fraction.

Pael receptor [3] = test: Pulse-chase experiment, turnover of 35S-labeled Pael receptor; type: cell-based, human; conditions: 10 μM lactacystin, relative to level at time 0
Procedure: Pael receptors having FLAG-tagged carboxyl termini (Pael receptor-FLAG) and expression plasmids for Parkin or control plasmids were gene-transferred to SH-SY5Y cells. 36 hours later, the cells were cultured for 1 hour in Dulbecco's modified eagle's medium (M/C-free DMEM) containing 5% fetal calf serum (FCS) but containing no methionine/cysteine under conditions involving the presence or the absence of 10 μM lactacystin. The cells were then labeled at 37° C. for 30 minutes by adding 200 μCi/ml ^35S-methionine/cysteine to the 5% FCS-containing M/C-free DMEM in the presence or the absence of 10 μM lactacystin. […] The metabolically labeled Pael receptor was quantified using Image Gauge software (Fujifilm). Next, to examine whether Parkin degrades the Pael receptor in the ubiquitin-proteasome system, the turnover rate of the Pael receptor was measured under conditions involving the presence or the absence of Parkin by the pulse-chase experiment (FIG. 9). […] Subsequently, ^35S-methionine/cysteine were added for labeling, and then the cells were chased for the time indicated in FIG. 9 in the presence (Lc +) or the absence (Lc −) of 10 μM lactacystin. ^35S-labeld Pael receptors were immunoprecipitated, detected by radioautography (FIG. 9 left), and then quantified by phosphor imaging (FIG. 9 right). […]

[4] = Pael receptor-over-expressing SH-SY5Y cells, 16 hours, lactacystin 20 μM, tunicamycin 5 μg/ml, 2-ME 2 mM
[5] = control SH-SY5Y cells, 16 hours, tunicamycin 5 μg/ml, 2-ME 2 mM

Compound	cells died (SH-SY5Y cells; [4])	cells died (SH-SY5Y cells; [5]) [%]	intracellular distribution of Pael receptors (Pael receptor [1])	Pael receptors in the insoluble fraction (Pael receptor [2])	expression of BiP (GRP78) and of endogenous Parkin in the soluble fraction (Pael receptor [2])	cells died (SH-SY5Y cells; human, 16 h, 20 μM)	Pael receptors remained after 180 minutes of chasing (Pael receptor [3]; SH-SY5Y cells over-expressing Parkin) [%]	Pael receptors remained after 180 minutes of chasing (Pael receptor [3]; control SH-SY5Y cells) [%]
OCCS [2-ME, 2-mercaptoethanol]	approximately 60%	40	the same	increased with a high-molecular-weight shift	caused increases			
CC(=O)N[C@@H](CSC(=O)[C@]1([C@@H](O)C(C)C)NC(=O)[C@H](C)[C@@H]1O)C(=O)O [lactacystin]			accumulated in the endoplasmic reticulum	increased with a high-molecular-weight shift	caused increases	approximately 50%	58	54
tunicamycin	approximately 60%	40	the same	increased with a high-molecular-weight shift	caused increases			

Source: US20060051835A1, “Pael receptor, cells and animal expressing pael receptor and method of screning remedy for parkinson's disease” (priority 2001, published 2006)
